Tests used:
THP-1 macrophages = test: Effect of compounds on host cell viability (MTT); type: cell-based; conditions: read-out: 24h LC50; THP1 macrophages, 24-hour incubation, MTT assay (Supplemental Table 2)
Procedure, shortened: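 THP-1 cells were differentiated with 150 nM PMA for 72 h, then exposed to compounds at 1–50 μM for 24 h; selected compounds were also run at 1–300 μM for 72 h. MTT at 0.5 mg/mL was added for 2 h at 37 °C, and formazan absorbance was read at 560 nm minus 670 nm.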

[1] = tested on: intracellular L. donovani amastigotes; test: Luminescent-based evaluation of intracellular anti-leishmanial activity in THP-1 macrophages; type: cell-based, Leishmania donovani; conditions: intracellular Leishmania donovani in THP1 macrophages, luminescence assay (Supplemental Table 2); read-out: Lum IC50
Procedure, shortened: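 PMA-differentiated THP-1 macrophages (150 nM, 72 h) were infected 18 h with firefly luciferase-expressing L. donovani LV82 promastigotes, then washed. Infected cells were treated with compounds at 0.1-10 μM for 72 h. Surviving intracellular amastigotes were quantified by firefly luciferase luminescence after cell lysis and 10 min substrate incubation at room temperature.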

Row | Structure (SMILES) | CC50 (THP-1 macrophages) | IC50 [1]
1 | N#Cc1ccc(-n2cc(C(F)(F)F)nc2-c2ccc(-c3ccc(C(F)(F)F)cc3)cc2)cc1 [Compound 177] | > 50 µM | > 10 µM
2 | O=C(c1ccc(-n2cc(C(F)(F)F)nc2-c2ccc(-c3ccc(C(F)(F)F)cc3)cc2)c(F)c1)N1CCC(NCc2cccc(F)c2)C1 (centres unmarked) [Compound 178] | > 50 µM | > 10 µM
3 | CS(=O)(=O)c1ccc(-n2nc(C(F)(F)F)cc2-c2ccc(-c3ccc(C(F)(F)F)cc3)cc2)cc1 [Compound 179] | 45 µM | > 10 µM
4 | N#Cc1ccc(-n2cc(C(F)(F)F)nc2-c2ccc(-c3ccccc3)cc2)cc1 [Compound 180] | > 50 µM | > 10 µM
5 | O=C(NCc1cccc(F)c1)c1ccc(-n2cc(C(F)(F)F)nc2-c2ccc(-c3ccc(C(F)(F)F)cc3)cc2)c(F)c1 [Compound 181] | 28.7 µM | > 10 µM
6 | CC(C)(C)OC(=O)NC1CCN(C(=O)c2ccc(-n3cc(C(F)(F)F)nc3-c3ccc(-c4ccc(C(F)(F)F)cc4)cc3)c(F)c2)C1 (centres unmarked) [Compound 182] | 18 µM | 5.9 µM
7 | FC(F)(F)Oc1ccc(-n2cc(C(F)(F)F)nc2-c2ccc(-c3ccccc3)cc2)cc1 [Compound 183] | > 50 µM | > 10 µM
8 | CC(=O)c1ccc(-n2cc(C(F)(F)F)nc2-c2ccc(-c3ccccc3)cc2)cc1 [Compound 184] | > 50 µM | 5 µM
9 | Cc1ccc(-n2nc(C(F)(F)F)cc2-c2ccc(-c3ccc(C(F)(F)F)cc3)cc2)c(C)c1 [Compound 185] | > 50 µM | > 10 µM
10 | FC(F)(F)Oc1ccc(-n2nc(C(F)(F)F)cc2-c2ccc(-c3ccc(C(F)(F)F)cc3)cc2)cc1 [Compound 186] | > 50 µM | > 10 µM
11 | COc1ccc(-n2nc(C(F)(F)F)cc2-c2ccc(-c3ccc(C(F)(F)F)cc3)cc2)c(C)c1 [Compound 187] | > 50 µM | > 10 µM
12 | NS(=O)(=O)c1ccc(-n2nc(C(F)(F)F)cc2-c2ccc(-c3ccc(C(F)(F)F)cc3)cc2)cc1 [Compound 188] | 9 µM | 3.1 µM
13 | O=[N+]([O-])c1cccc(-n2nc(C(F)(F)F)cc2-c2ccc(-c3ccc(C(F)(F)F)cc3)cc2)c1 [Compound 189] | > 50 µM | > 10 µM
14 | FC(F)(F)c1ccc(-c2ccc(-c3cc(C(F)(F)F)nn3-c3cccc(Br)c3)cc2)cc1 [Compound 190] | > 50 µM | > 10 µM
15 | CNS(=O)(=O)Cc1ccc(-n2nc(C(F)(F)F)cc2-c2ccc(-c3ccc(C(F)(F)F)cc3)cc2)cc1 [Compound 191] | 12 µM | > 10 µM
16 | O=[N+]([O-])c1ccc(-n2cc(C(F)(F)F)nc2-c2ccc(Br)cc2)cc1 [Compound 192] | > 50 µM | > 10 µM
17 | Nc1ccc(-n2cc(C(F)(F)F)nc2-c2ccc(Br)cc2)cc1 [Compound 193] | > 50 µM | > 10 µM
18 | FC(F)(F)c1cc(-c2ccc(Cl)cc2)n(-c2ccc(Br)cc2)n1 [Compound 194] | > 50 µM | > 10 µM
19 | NCC(=O)Nc1ccc(-n2cc(C(F)(F)F)nc2-c2ccc(Br)cc2)cc1 [Compound 195] | 38.6 µM | > 10 µM
20 | Cc1ccc(-c2cc(C(F)(F)F)nn2-c2ccc(Br)cc2)cc1 [Compound 196] | > 50 µM | > 10 µM
21 | FC(F)(F)c1cc(-c2ccc(Cl)c(Cl)c2)n(-c2ccc(Br)cc2)n1 [Compound 198] | > 50 µM | > 10 µM

Row | Structure (SMILES) | CC50 (THP-1 macrophages) | IC50 [1]
22 | NC1CCN(C(=O)c2ccc(-n3cc(C(F)(F)F)nc3-c3ccc(-c4ccc(C(F)(F)F)cc4)cc3)c(F)c2)C1 (centres unmarked) [Compound 199] | 9.4 µM | 1.3 µM
23 | CC(C)(C)c1cc(C(F)(F)F)nn1-c1ccc(Br)cc1 [Compound 201] | > 50 µM | > 10 µM
24 | CC(C)(C)OC(=O)NC1CCN(c2ccc(-n3nc(C(F)(F)F)cc3C(C)(C)C)cc2)C1 (centres unmarked) [Compound 202] | > 50 µM | 8.5 µM
25 | CC(C)(C)c1cc(C(F)(F)F)nn1-c1ccc(N2CCC(N)C2)cc1 (centres unmarked) [Compound 203] | 11.8 µM | 2.9 µM
26 | NC1CCN(c2ccc(-n3nncc3-c3ccc(C(F)(F)F)cc3)cc2)C1 (centres unmarked) [Compound 204] | 37.2 µM | > 10 µM
27 | N#Cc1ccc(-n2cc(C(F)(F)F)cc2-c2ccc(-c3ccc(C(F)(F)F)cc3)cc2)cc1 [Compound 205] | > 50 µM | > 10 µM
28 | c1cn(-c2ccc3nonc3c2)cn1 [Compound 207] | > 50 µM | > 10 µM
29 | FC(F)(F)c1ccc(-c2ccc(-c3cc(C(F)(F)F)nn3-c3ccc(N4CCNCC4)cc3)cc2)cc1 [Compound 208] | 31 µM | 5.7 µM
30 | FC(F)(F)c1cc(-c2ccc(-c3cccs3)cc2)n(-c2ccc(N3CCNCC3)cc2)n1 [Compound 209] | 10.2 µM | 3 µM
31 | FC(F)(F)c1cc(-c2ccc(-c3ccsc3)cc2)n(-c2ccc(N3CCNCC3)cc2)n1 [Compound 210] | 10.5 µM | 2.5 µM
32 | FC(F)(F)c1cc(-c2ccc(C3CC3)cc2)n(-c2ccc(N3CCNCC3)cc2)n1 [Compound 211] | 13.2 µM | 2.1 µM
33 | FC(F)(F)c1cc(-c2ccncc2)n(-c2ccc(Br)cc2)n1 [Compound 213] | > 50 µM | > 10 µM
34 | CN(C)c1ccc(-c2cc(C(F)(F)F)nn2-c2ccc(Br)cc2)cc1 [Compound 214] | > 50 µM | > 10 µM
35 | FC(F)(F)c1cc(C2CCCCC2)n(-c2ccc(Br)cc2)n1 [Compound 215] | > 50 µM | > 10 µM
36 | FC(F)(F)c1cc(C2CCCCC2)nn1-c1ccc(Br)cc1 [Compound 216] | > 50 µM | > 10 µM
37 | CN(C)c1ccc(-c2cc(C(F)(F)F)nn2-c2ccc(N3CCC(NC(=O)OC(C)(C)C)C3)cc2)cc1 (centres unmarked) [Compound 217] | > 50 µM | > 10 µM
38 | FC(F)(F)c1c[nH]c(-c2ccc(Oc3ccccc3)cc2)n1 [Compound 218] | > 50 µM | > 10 µM
39 | FC(F)(F)c1cn(-c2ccc(Br)cc2)c(-c2ccc(Oc3ccccc3)cc2)n1 [Compound 219] | > 50 µM | > 10 µM
40 | FC(F)(F)c1ccc(-c2ccc(-c3cc(C(F)(F)F)nn3-c3ccc(N4CCNCC4)cc3)cc2)cc1 [Compound 220] | 15.4 µM | 1.3 µM
41 | Nc1ccc(-n2cc(C(F)(F)F)nc2-c2ccc(Oc3ccccc3)cc2)cc1 [Compound 221] | > 50 µM | > 10 µM
42 | Fc1cccc(CN2CCN(c3ccc(-n4nc(C(F)(F)F)cc4-c4ccc(-c5ccc(C(F)(F)F)cc5)cc4)cc3)CC2)c1 [Compound 222] | > 50 µM | > 10 µM

Row | Structure (SMILES) | CC50 (THP-1 macrophages) | IC50 [1]
43 | CC(C)(C)OC(=O)NC1CCN(c2ccc(-n3nc(C4CCCCC4)cc3C(F)(F)F)cc2)C1 (centres unmarked) [Compound 229] | 5 µM | 3.4 µM
44 | CC(C)(C)OC(=O)NC1CCN(c2ccc(-n3nc(C(F)(F)F)cc3C3CCCCC3)cc2)C1 (centres unmarked) [Compound 230] | 9.5 µM | > 10 µM
45 | CN(C)c1ccc(-c2cc(C(F)(F)F)nn2-c2ccc(N3CCC(N)C3)cc2)cc1 (centres unmarked) [Compound 231] | 10.8 µM | 1.8 µM
46 | NC1CCN(c2ccc(-n3nc(C4CCCCC4)cc3C(F)(F)F)cc2)C1 (centres unmarked) [Compound 232] | 14.4 µM | 2.6 µM
47 | Fc1cccc(CN2CCC(Nc3ccc(-n4cc(C(F)(F)F)nc4-c4ccc(-c5ccc(C(F)(F)F)cc5)cc4)cc3)C2)c1 (centres unmarked) [Compound 243] | > 50 µM | > 10 µM
48 | O=S(=O)(c1ccc(-n2cc(C(F)(F)F)nc2-c2ccc(-c3ccc(C(F)(F)F)cc3)cc2)cc1)C(F)(F)F [Compound 244] | > 50 µM | > 10 µM
49 | COc1ccc(-n2cc(C(F)(F)F)nc2-c2ccc(-c3ccccc3)cc2)cc1 [Compound 245] | > 50 µM | > 10 µM
50 | FC(F)(F)c1ccc(-c2ccc(-c3nc(C(F)(F)F)cn3-c3ccc(NC4CCNC4)cc3)cc2)cc1 (centres unmarked) [Compound 246] | 5.5 µM | 3.8 µM
51 | NC1CCN(c2ccc(-n3nc(C(F)(F)F)cc3-c3ccc(F)cc3)cc2)C1 (centres unmarked) [Compound 248] | 14.4 µM | 2.6 µM
52 | FC(F)(F)c1cc(-c2cccnc2)n(-c2ccc(Br)cc2)n1 [Compound 249] | 50 µM | > 10 µM
53 | FC(F)(F)c1cc(-c2cccnc2)n(-c2ccc(NC3CCNC3)cc2)n1 (centres unmarked) [Compound 250] | > 50 µM | > 10 µM
54 | COc1ccc(-c2cc(C(F)(F)F)nn2-c2ccc(Br)cc2)cc1OC [Compound 251] | > 50 µM | > 10 µM
55 | FC(F)(F)c1ccc(-c2cc(C(F)(F)F)nn2-c2ccc(NC3CCNC3)cc2)cc1 (centres unmarked) [Compound 252] | 14.4 µM | 2.3 µM
56 | FC(F)(F)c1cc(-c2ccccc2C(F)(F)F)n(-c2ccc(Br)cc2)n1 [Compound 255] | > 50 µM | > 10 µM
57 | COc1ccc(-c2cc(C(F)(F)F)nn2-c2ccc(NC3CCNC3)cc2)cc1OC (centres unmarked) [Compound 260] | 13.9 µM | 4.3 µM
58 | FC(F)(F)c1cc(C2CC2)n(-c2ccc(NC3CCNC3)cc2)n1 (centres unmarked) [Compound 272] | 17.2 µM | 5.6 µM
59 | FC(F)(F)c1cc(-c2ccco2)n(-c2ccc(NC3CCNC3)cc2)n1 (centres unmarked) [Compound 273] | 15.6 µM | 4.9 µM
60 | NC1CCN(c2ccc(-n3nc(C(F)F)cc3-c3ccc(-c4ccc(C(F)(F)F)cc4)cc3)cc2)C1 (centres unmarked) [Compound 281] | 14.3 µM | 2 µM
61 | FC(F)(F)c1ccc(-c2nc(C(F)(F)F)cn2-c2ccc(NC3CCNC3)cc2)cc1 (centres unmarked) [Compound 296] | 12.9 µM | 3 µM

Reference: article doi:10.1101/2025.11.04.686469, “Discovery of Host-Directed Small Molecules with Broad Anti-Leishmanial Efficacy” (bioRxiv, 2025)
